According to EP0055490A1, “Tetrahydro-1,2,4-oxadiazin-5-one derivatives, processes for their preparation and medicines containing these compounds” (RICHTER GEDEON VEGYÉSZETI GYÁR RT, priority 1980, dated 1982):

Key:
CFLP-Mäusen [1] = experiment: Inhibition of pentamethylenetetrazole (pentetrazole) convulsion; assay type: in vivo; conditions: Mus musculus, sc; 20 mg/kg peroral, 1 hour after dosing, groups of 10 mice; 125 mg/kg Pentamethylentetrazol subcutaneous; read-out: Hemmwirkung in % in Bezug auf den Pentamethylentetrazolkrampf tonischen Streckkrampf
Source text: (§1) Die pharmakologischen Wirkungen der erfindungsgemäßen Tetrahydro-1,2,4-oxadiazin-5-onderivate der allgemeinen Formel I wurden in Tierversuchen nach den üblichen pharmakologischen Verfahrensweisen nachgewiesen, wobei als Vergleichssubstanzen die anerkannt gut wirksamen bekannten Handelsprodukte 5,5-Diphenylhydantoin [Vergleichssubstanz A] und 3-Methyl-5-äthyl-5-phenylhydantoin [Vergleißhssubstanz B] gleicher Wirkungsrichtung verwendet wurden. Die Tierversuche wurden mit CFLP-Mäusen (LATI, Gödöllo, Ungarn) von gemischtem Geschlecht (Körpergewicht: 18 bis 22 g) mit Gruppen von je 10 Tieren durchgeführt. Die zu untersuchenden Verbindungen wurden in einer 5%-igen wäßrigen Lösung von Polyoxyäthylensorbitanmonooleat [Tween 80® suspendiert und diese Suspensionen wurden.auf peroralem Wege mit einer Sonde den Tieren verabreicht. Die Wirkstoffe wurden in den zur Untersuchung der krampfhemmenden beziehungsweise antikonvulsiven Wirkung durchgeführten Versuchen in Dosen von 20 mg/kg Körpergewicht und zur Messung der neurotoxischen Wirkung in Dosen von 80 mg/kg Körpergewicht verabreicht. Die Wirkungen wurden 1 Stunde nach der Verabreichung durch die im folgenden beschriebenen Verfahrensweisen gemessen.
b) Hemmwirkung gegen den Pentamethylentetrazolkrampf [Pentetrazolkrampf]
Es wurden 125 mg Pentamethylentetrazol/kg Körpergewicht nach der Verfahrensweise von Cr. N. Everett und R. K. Richards (J. Pharmacol. Exp: Therap. 81 [1944], 402) den Tieren subkutan verabreicht. 1 Stunde nach der Verabreichung des zu untersuchex den Wirkstoffes wurde die Wirkung beobachtet: Als Schutiwirkung wurde das Unterbleiben des klonischen Krampfes beriehungsweise des tonischen Streckkrampfes der hinteren GliedmaBen bewertet.

Acute toxicity (LD50) = conditions: mouse, in vivo, po; single peroral dose, 14 days observation, mice; read-out: Peroraler LD50-Wert (converted)
Source text: as §1
Die Toxizität der zu untersuchenden Verbindungen wurde nach 1-maliger Verabreichung von verschiedenen Dosen durch 14 Tage lange Beobachtung der Tiere ermittelt. Die LD50-Werte (die bei 50% der Tiere tödlichen Dosen) wurden auf Grund des Prozentsatzes der innerhalb 14 Tage verendeten Tiere berechnet.

CFLP-Mäusen [2] = experiment: Maximal electroshock [MES] anticonvulsant test; assay type: in vivo; conditions: Mus musculus, po; 20 mg/kg peroral, measured 1 hour after dosing, groups of 10 mice; corneal electrode 20 mA, 0,2 s; protection = absence of tonic hindlimb extension; read-out: Hemmwirkung in % in Bezug auf den maximalen Elektroschock
Source text: as §1
a) Maximaler Elektroschock [MES]
Die Tiere wurden nach der Verfahrensweise von E. A. Swinyard und Mitarbeitern (J. Pharmacol. 106 [1952], 319) mit einer Hornhautelektrode beziehungsweise Corneal--Elektrode (20 mA, 0,2 Sekunde) geschockt. 100% der Blindversuchs- beziehungsweise Kontrolltiere reagierten auf diesen Reiz mit einem tonischen Streckkrampf (extensorischen Krampf) der hinteren Gliedmaßen. Das Unterbleiben dieser Reaktion wurde als unter der Wirkung der Behandlung eingetretener Schutz gewertet.

SMILES | responders at 20 mg/kg (CFLP-Mäusen [1]) [%] | LD50 at 336 h (Acute toxicity (LD50)) [mg/kg] | responders at 20 mg/kg (CFLP-Mäusen [2]) [%]
CC(=O)N1OC(Cc2ccccc2)C(=O)NC1c1ccccc1 (racemic) [Beispiel 60] | 20 | 1000 | –
CC(=O)N1OCC(=O)NC1c1ccc(F)cc1 (stereo not drawn) [Beispiel 13, 2-Acetyl-3-(4'-fluorphenyl)-tetrahydro-1,2,4-oxadiazin-5-on] | 40 | 800 | 40
CC(=O)N1OCC(=O)NC12CCCCC2 [Beispiel 83] | – | 1000 | 40
CC(=O)N1OCC(=O)NC1c1ccccc1 (stereo not drawn) [Beispiel 2, 2-Acetyl-3-phenyltetrahydro-1,2,4-oxadiazin-5-on] | 90 | 1190 | 70
CCC1(c2ccccc2)NC(=O)N(C)C1=O (stereo not drawn) [Vergleichssubstanz B, 3-Methyl-5-äthyl-5-phenylhydantoin, reference compound] | 50 | 476 | 10
CC(=O)N1OCC(=O)NC1c1ccc(Br)cc1 (stereo not drawn) [Beispiel 14] | – | 800 | 40
CC(=O)N1OCC(=O)N(C(C)=O)C1c1ccccc1 (stereo not drawn) [Beispiel 8, 2,4-Diacetyl-3-phenyltetrahydro-1,2,4-oxadiazin-5-on] | 40 | 1000 | 60
CC(=O)N1OCC(=O)NC1c1ccc(C(=O)O)cc1 (stereo not drawn) [Beispiel 84] | – | 1000 | 40
CC(=O)N1OCC(=O)NC1c1cccs1 (stereo not drawn) [Beispiel 16] | 40 | 800 | 20
CC(=O)N1OCC(=O)NC1c1cccc2ccccc12 (stereo not drawn) [Beispiel 15] | – | 800 | 40
CC(=O)N1OC(C)C(=O)NC1c1ccccc1 (racemic) [Beispiel 61, 2-Acetyl-3-phenyl-6-methyltetrahydro-1,2,4-oxadiazin-5-on] | 50 | 1000 | 20
O=C1NC(=O)C(c2ccccc2)(c2ccccc2)N1 [Vergleichssubstanz A, 5,5-Diphenylhydantoin, reference compound] | 80 | 279 | 90
O=C1CONC(c2ccc(O)cc2)N1 (stereo not drawn) [Beispiel 63] | 20 | 800 | 40
CCOC(=O)N1OCC(=O)NC1c1ccccc1 (stereo not drawn) [Beispiel 89] | 20 | 1000 | –
